From patent publication US20100197800A1, “Treatment and/or Prevention of Presbycusis by Modulation of Metabotropic Glutamate Receptor 7” (priority 2007, published 2010)
Where two headings read alike, the source gives them in different places.

Legend:
[1] = target: T1, mGluR7 (Homo sapiens, UniProt Q14831); conditions: higher for mGluR7; cited from earlier work
[2] = target: T2, mGluR7 (Mus musculus, UniProt Q68ED2); conditions: cited from earlier work
T2 construct: host or cells: whole animals (in vivo), endogenous receptor

[3] = target: T1, mGluR7; conditions: through an allosteric site; cited from earlier work
[4] = tested on: presbycusis; assay: treatment of patients with presbycusis, hearing threshold; assay type: in vivo, human; conditions: for hearing threshold left ear / hearing threshold right ear: after 14 days
Method: A person presents with symptoms of presbycusis, including moderate loss of higher frequency (above 2000 Hz) hearing (50 decibel threshold) in both ears. The person is administered two drops per ear twice daily of a topical otic formulation comprising 10 ug/ml of AMN082 in a phosphate-buffered saline and further comprising 0.25% the carboxyvinyl water swellable gelling agent, Carbopol 934P; i.e., about 1 ug nGluR7 agonist per ear per dosing. After 14 days, the patient is tested by an audiologist. The threshold is lowered to 35 decibels right ear and 40 decibels left ear.
A person presents with symptoms of presbycusis, including loss of moderately high frequency (above 1000 Hz) hearing (40 decibel threshold right ear and 35 decibel threshold left ear). The person is administered an oral formulation 4 times per day comprising 2 ug per dose of AMN082. The extended release capsule comprises a matrix of 10% by weight hydroxypropyl methylcellulose (e.g., Methocel®; Dow Chemical Company, U.S.A), and 50% by weight of a cornstarch filler. After 14 days, the threshold is lowered to 35 decibels right ear and 25 decibels left ear.
A person presents with symptoms of presbycusis, including loss of hearing in the 500 to above 2000 Hz range. The person is implanted with an Alset® osmotic pump adapted for cochlear delivery; see e.g., Richardson, R. T., Noushi, F., O'Leary, S. Inner ear therapy for neural preservation. AUDIOLOGY AND NEURO-OTOLOGY 2006; 11(6): 343-356. The pump is supplied with an aqueous sterile solution comprising AMN082. The pump delivers a dose of 10 ug/hour of the mGluR7 modulator. After 10 days, hearing is improved in both ears.

[5] = target: T3, rat mGluR7 (Rattus norvegicus, UniProt P35400); conditions: cited from earlier work
T3 construct: host or cells: CHO cells, transfected

[6] = target: T1, mGluR7; design: host or cells: CHO cells, transfected; conditions: CHO cells coexpressing human mGluR7 with G15; cited from earlier work
[7] = target: T1, mGluR7; conditions: cited from earlier work
[8] = target: mGluR4 (Homo sapiens, UniProt Q14833); conditions: concentrations of at least 1 μM; cited from earlier work
[9] = target: T4, mGluR8 (Homo sapiens, UniProt O00222); conditions: concentrations of at least 1 μM; cited from earlier work
[10] = target: T1, mGluR7; design: host or cells: CHO cells (printed only for the inverse-agonism experiment, A12); conditions: CHO cells expressing mGluR7; cited from earlier work
[11] = target: T1, mGluR7; conditions: cited from earlier work; remark: listed apart in the source
[12] = target: mGluR2 (Homo sapiens, UniProt Q14416); conditions: concentrations of at least 1 μM; cited from earlier work
[13] = target: mGluR5 (Homo sapiens, UniProt P41594); conditions: concentrations of at least 1 μM; cited from earlier work
[14] = target: mGluR1 (Homo sapiens, UniProt Q13255); conditions: concentrations of at least 1 μM; cited from earlier work
[15] = target: T3, rat mGluR7; conditions: CHO cells expressing rat mGluR7; read-out: IC50, inhibition of L-AP4-induced inhibition of forskolin-stimulated cAMP accumulation; cited from earlier work
[16] = target: mGluR3 (Homo sapiens, UniProt Q14832); conditions: concentrations of at least 1 μM; cited from earlier work
[17] = target: mGluR4a (Homo sapiens, UniProt Q14833); conditions: agonist; cited from earlier work
[18] = target: human mGluR7b (Homo sapiens, UniProt Q14831); conditions: agonist; cited from earlier work
[19] = target: T1, mGluR7; conditions: antagonist; read-out: 1050 values on inhibition of glutamate stimulated inositol phosphate accumulation, mGluR7; cited from earlier work
[20] = target: T4, mGluR8; conditions: antagonist; read-out: 1050 values on inhibition of glutamate stimulated inositol phosphate accumulation, mGluR8; cited from earlier work
[21] = target: mGluR6 (Homo sapiens, UniProt O15303); conditions: antagonist; read-out: 1050 values on inhibition of glutamate stimulated inositol phosphate accumulation, mGluR6; cited from earlier work
[22] = Example 3: person, topical otic drops twice daily, baseline 50 decibel, above 2000 Hz

T1 sequence (Q14831 35-915): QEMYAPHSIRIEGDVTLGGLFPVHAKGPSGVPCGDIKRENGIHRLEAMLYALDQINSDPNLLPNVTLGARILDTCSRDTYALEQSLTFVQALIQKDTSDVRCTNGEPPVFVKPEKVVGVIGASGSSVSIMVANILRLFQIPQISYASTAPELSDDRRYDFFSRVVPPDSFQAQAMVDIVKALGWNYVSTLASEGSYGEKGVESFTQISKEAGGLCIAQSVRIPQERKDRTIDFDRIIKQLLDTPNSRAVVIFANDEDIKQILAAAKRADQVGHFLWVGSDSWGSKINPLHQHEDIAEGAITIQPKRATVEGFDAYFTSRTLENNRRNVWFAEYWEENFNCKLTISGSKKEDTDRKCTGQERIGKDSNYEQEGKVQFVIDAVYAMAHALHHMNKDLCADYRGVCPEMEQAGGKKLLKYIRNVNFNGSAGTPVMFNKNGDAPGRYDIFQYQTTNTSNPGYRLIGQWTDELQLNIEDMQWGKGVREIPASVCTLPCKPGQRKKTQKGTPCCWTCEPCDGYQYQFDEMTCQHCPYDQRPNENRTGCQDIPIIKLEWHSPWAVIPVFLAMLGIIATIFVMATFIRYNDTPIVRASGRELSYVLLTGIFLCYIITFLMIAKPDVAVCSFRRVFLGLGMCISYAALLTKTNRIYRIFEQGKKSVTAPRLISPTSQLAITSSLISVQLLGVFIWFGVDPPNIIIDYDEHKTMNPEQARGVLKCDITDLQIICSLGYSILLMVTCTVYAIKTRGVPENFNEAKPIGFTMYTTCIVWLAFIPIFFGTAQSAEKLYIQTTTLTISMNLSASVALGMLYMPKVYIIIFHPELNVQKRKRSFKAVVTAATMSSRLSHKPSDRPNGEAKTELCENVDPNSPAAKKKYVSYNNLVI
T2 sequence (Q68ED2 35-915): as the sequence (Q14831 35-915) above, with S454T, A486P, D544N counted along it
T3 sequence (P35400 35-915): as the sequence (Q14831 35-915) above, with N420H, S454T, A486S, D544N counted along it
T4 sequence (O00222 34-908, species assumed): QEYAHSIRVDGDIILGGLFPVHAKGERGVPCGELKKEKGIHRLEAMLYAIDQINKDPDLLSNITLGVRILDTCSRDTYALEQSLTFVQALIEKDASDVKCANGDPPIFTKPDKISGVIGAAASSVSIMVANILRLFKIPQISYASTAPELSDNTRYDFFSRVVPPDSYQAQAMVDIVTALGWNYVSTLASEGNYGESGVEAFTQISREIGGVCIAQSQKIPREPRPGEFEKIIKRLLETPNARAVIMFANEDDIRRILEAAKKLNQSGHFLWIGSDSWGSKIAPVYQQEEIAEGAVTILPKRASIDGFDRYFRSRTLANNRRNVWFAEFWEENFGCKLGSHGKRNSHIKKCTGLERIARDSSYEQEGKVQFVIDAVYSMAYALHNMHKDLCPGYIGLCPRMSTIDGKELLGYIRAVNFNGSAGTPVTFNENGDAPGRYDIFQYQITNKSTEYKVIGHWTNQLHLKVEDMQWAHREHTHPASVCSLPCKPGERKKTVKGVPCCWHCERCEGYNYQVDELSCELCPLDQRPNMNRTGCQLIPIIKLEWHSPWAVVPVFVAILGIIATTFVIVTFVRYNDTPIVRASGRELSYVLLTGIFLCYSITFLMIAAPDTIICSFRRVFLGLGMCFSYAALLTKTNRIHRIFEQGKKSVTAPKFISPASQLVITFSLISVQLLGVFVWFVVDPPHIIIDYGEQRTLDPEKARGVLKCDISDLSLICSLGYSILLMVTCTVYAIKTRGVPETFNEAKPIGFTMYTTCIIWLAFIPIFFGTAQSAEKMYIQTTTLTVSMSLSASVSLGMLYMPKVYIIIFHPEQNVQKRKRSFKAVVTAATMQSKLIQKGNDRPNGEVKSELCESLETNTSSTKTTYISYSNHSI
mGluR5, sequence (P41594 21-1212): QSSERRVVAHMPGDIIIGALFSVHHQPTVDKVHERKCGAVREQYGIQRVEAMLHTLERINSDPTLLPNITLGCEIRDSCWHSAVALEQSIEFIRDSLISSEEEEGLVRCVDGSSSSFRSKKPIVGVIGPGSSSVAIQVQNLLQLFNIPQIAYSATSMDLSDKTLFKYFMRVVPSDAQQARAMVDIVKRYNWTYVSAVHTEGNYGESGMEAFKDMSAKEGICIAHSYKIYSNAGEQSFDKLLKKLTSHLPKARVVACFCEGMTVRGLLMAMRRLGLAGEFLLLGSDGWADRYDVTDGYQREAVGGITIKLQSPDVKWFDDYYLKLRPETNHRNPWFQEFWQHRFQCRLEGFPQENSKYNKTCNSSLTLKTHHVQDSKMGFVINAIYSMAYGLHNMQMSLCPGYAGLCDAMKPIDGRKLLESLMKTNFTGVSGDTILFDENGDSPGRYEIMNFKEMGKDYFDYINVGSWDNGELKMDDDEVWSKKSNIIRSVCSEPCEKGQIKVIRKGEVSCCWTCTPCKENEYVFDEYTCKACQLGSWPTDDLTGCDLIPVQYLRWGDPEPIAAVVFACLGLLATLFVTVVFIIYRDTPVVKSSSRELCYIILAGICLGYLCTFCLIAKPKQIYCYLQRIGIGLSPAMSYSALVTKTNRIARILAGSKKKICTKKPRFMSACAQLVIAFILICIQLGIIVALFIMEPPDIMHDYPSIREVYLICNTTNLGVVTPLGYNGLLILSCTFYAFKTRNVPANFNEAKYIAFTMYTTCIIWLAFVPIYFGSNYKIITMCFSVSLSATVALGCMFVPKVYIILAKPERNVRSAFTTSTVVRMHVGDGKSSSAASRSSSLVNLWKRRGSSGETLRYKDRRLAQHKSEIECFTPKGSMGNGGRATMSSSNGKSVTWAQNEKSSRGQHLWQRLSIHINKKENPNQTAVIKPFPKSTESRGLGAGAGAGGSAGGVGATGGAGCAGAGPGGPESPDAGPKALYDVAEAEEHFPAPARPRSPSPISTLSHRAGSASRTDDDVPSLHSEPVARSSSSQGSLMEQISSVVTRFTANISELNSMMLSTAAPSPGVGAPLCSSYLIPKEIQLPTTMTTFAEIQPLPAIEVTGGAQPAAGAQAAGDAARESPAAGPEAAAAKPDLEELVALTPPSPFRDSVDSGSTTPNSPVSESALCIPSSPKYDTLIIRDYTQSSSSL
mGluR6, sequence (O15303 25-877): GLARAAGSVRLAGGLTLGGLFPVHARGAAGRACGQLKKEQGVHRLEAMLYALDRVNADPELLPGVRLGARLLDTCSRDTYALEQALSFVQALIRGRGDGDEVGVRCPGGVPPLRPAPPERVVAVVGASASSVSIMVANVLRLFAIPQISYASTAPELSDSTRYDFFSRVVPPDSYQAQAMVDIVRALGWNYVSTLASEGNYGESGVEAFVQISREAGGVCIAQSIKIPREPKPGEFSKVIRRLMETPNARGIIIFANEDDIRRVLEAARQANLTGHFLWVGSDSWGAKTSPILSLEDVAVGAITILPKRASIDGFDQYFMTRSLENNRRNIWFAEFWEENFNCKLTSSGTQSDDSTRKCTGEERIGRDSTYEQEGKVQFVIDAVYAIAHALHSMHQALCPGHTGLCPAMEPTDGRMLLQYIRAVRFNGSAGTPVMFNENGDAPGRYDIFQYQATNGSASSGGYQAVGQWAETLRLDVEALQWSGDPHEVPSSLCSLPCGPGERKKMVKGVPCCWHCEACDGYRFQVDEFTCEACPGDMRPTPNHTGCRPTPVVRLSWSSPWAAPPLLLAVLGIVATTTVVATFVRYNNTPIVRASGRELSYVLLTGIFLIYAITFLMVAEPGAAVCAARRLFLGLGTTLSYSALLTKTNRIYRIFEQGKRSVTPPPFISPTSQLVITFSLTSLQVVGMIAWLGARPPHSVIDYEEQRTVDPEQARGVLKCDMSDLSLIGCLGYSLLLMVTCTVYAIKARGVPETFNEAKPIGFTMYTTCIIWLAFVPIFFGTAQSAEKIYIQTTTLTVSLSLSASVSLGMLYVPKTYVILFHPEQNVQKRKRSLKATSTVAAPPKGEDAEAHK
mGluR4, sequence (Q14833 33-912): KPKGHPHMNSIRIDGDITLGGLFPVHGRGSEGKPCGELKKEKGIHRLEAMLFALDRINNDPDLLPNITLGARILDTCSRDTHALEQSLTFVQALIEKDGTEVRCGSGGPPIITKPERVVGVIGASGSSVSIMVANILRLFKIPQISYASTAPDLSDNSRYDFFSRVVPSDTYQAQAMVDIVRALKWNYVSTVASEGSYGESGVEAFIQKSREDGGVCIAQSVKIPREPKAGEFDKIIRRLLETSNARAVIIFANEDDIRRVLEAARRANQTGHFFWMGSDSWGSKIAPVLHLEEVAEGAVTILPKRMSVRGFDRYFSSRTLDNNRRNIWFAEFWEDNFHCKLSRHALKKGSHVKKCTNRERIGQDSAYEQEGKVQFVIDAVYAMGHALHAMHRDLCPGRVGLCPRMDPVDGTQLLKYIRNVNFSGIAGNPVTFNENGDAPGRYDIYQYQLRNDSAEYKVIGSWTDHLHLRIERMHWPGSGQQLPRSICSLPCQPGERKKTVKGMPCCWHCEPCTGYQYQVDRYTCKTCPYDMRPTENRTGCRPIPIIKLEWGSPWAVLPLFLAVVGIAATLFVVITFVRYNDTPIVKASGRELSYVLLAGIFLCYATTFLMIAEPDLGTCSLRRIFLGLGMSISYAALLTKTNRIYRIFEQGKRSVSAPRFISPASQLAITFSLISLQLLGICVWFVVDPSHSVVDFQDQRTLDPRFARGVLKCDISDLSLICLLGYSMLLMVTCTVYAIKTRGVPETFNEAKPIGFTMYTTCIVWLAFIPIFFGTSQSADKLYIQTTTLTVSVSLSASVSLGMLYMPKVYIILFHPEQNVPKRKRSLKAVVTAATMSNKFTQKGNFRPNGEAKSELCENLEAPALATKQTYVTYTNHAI
mGluR4a, sequence (Q14833 33-912): as above

Compound: N[C@@H](CCP(=O)(O)O)C(=O)O [L-AP4, L-(+)-2-amino-4-phosphonobutyric acid]
- concentrations activating mGluR7 relative to those activating mGluRs 4, 6, and 8 [1]: 2-3 orders of magnitude

Compound: Cl.Cl.c1ccc(C(NCCNC(c2ccccc2)c2ccccc2)c2ccccc2)cc1 [AMN082, N,N′-dibenzhydryl-ethane-1,2-diamine dihydrochloride]
- oral activity ([2]; in vivo, po): orally active
- blood-brain barrier penetration ([2]; in vivo): penetrate the blood-brain barrier
- increase in stress hormone levels in mGluR7 knockout animals ([2]; mGluR7 knockout animals): absent
- stress hormone levels ([2]; wild-type animals): robust increase
- activation of mGluR7 [3]: fully activating
- hearing threshold left ear [4, 22]: 40 decibels
- hearing threshold right ear [4, 22]: 35 decibels
- hearing threshold left ear ([4]; Example 4: person, oral 2 ug 4 times per day, baseline 35 decibel, above 1000 Hz): 25 decibels
- hearing threshold right ear ([4]; Example 4: person, oral 2 ug 4 times per day, baseline 40 decibel, above 1000 Hz): 35 decibels
- hearing in both ears ([4]; Example 5: person, cochlear osmotic pump 10 ug/hour, after 10 days): improved

Compound: COc1ccc(-c2cc3onc(-c4ccncc4)c3c(=O)n2C)cc1 [MMPIP, 6-(4-methoxyphenyl)-5-methyl-3-pyridin-4-ylisoxazolo[4,5-c]pyridin-4(5H)-one]
- maximal response in agonist concentration-response curves in the presence of the compound [5]: reduced
- reversibility of antagonism [5]: reversible
- inhibition of the L-AP4-induced cAMP response [6]: inhibited
- displacement of [3H]LY341495 bound to mGluR7 [7]: did not displace
- effect on mGluR4 [8]: no significant effect
- effect on mGluR8 [9]: no significant effect
- forskolin-stimulated cAMP levels in the absence of agonists (inverse agonistic activity) [10]: further increase
- antagonism of AMN082-induced inhibition of cAMP accumulation [11]: able to antagonize
- effect on mGluR2 [12]: no significant effect
- effect on mGluR5 [13]: no significant effect
- effect on mGluR1 [14]: no significant effect
- IC50 [15]: 0.22 µM
- effect on mGluR3 [16]: no significant effect

Compound: 5-Methyl-3,6-diphenylisoxazolo[4,5-e]pyridin-4(5H)-one [MDIP]
- IC50 ([5]; CHO cells coexpressing rat mGluR7 with G15, read-out: IC50, inhibition of L-AP4-induced intracellular Ca2+ mobilization): 0.02 µM
- inhibition of the L-AP4-induced cAMP response [6]: inhibited
- IC50 [15]: 0.099 µM

Compound: N[C@@H](C(=O)O)c1ccc(P(=O)(O)O)cc1 (racemic) [(+)-PPG, (R,S)-phosphonophenylglycine]
- EC50 [17]: 3.2 µM
- EC50 [18]: 48 µM

Compound: N[C@H](C(=O)O)C1[C@H](C(=O)O)[C@H]1C(=O)O (stereo partly drawn) [DCG-IV, (2S,1'S,2'S)-2-(dicarboxycyclopropyl)glycine]
- IC50 [19]: 40.1 µM
- IC50 [20]: 32 µM
- IC50 [21]: 39.6 µM
